According to US20240373850A1, “Compositions comprising resinous exudate metabolites from plants of the genus Adesmia, used to control and treat infections in plant crops; and methods for controlling infections in plant crops” (PONTIFICIA UNIVERSIDAD CATÓLICA DE VALPARAÍSO, priority 2021, published 2024):
Values joined by “and” are separate entries in the source; they are usually repeats but may differ in a detail not shown here. Identical values can stand only once. Like-named read-outs stand apart in the source and are kept apart here.

Tests used:
[1] = test system: Pseudomonas syringae syringae; assay: Antibacterial micro-dilution test (MIC), Pss; format: cell-based; settings: MH medium, 27° C., 24 hours
Method: (§1) Antibacterial test of secondary metabolites isolated from the resinous exudates of Adesmia plants against the pathogen (Psa), from isolates made in Chile and Italy, also tested on other bacteria of interest, in vitro.
(§2) All strains were cultivated in Nutrient culture medium supplemented with 3% sucrose (SNA), and incubated at 27° C. The bacterial inoculum was produced in Mueller-Hinton (MH) culture medium in glass test tubes and incubated at 27° C. in an orbital shaker at 150 rpm in the dark for 24 hours. A stock solution of each molecule was prepared to obtain a concentration of 2000 mg/L, later they were diluted in a 96-well microplate with MH culture medium and thus obtain the different concentrations of […] of each molecule. The antibacterial activity of the molecules was determined by the method of micro-dilution of the substance to be tested. […]
(§3) Through the evaluation of absorbance at 600 nm in an Accu Reader M965 spectrophotometer, those treatments that were effective in inhibiting growth compared to the negative control were selected, to subsequently quantify the percentage of inhibition. The absorbances or optical density (O.D) were converted to percentage of antibacterial inhibition (PIAB) using the following formula: […]

[2] = test system: Pseudomonas syringae pv actinidiae code 8.43; assay: Antibacterial micro-dilution test (MIC), Psa 8.43; format: cell-based; settings: read-out: MIC Psa 8.43
Method: as §1
(§4) All strains were cultivated in Nutrient culture medium supplemented with 3% sucrose (SNA), and incubated at 27° C. The bacterial inoculum was produced in Mueller-Hinton (MH) culture medium in glass test tubes and incubated at 27° C. in an orbital shaker at 150 rpm in the dark for 24 hours. A stock solution of each molecule was prepared to obtain a concentration of 2000 mg/L, later they were diluted in a 96-well microplate with MH culture medium and thus obtain the different concentrations of […] of each molecule. The antibacterial activity of the molecules was determined by the method of micro-dilution of the substance to be tested. Four controls were used: negative control (only MH liquid culture medium inoculated with bacteria); positive control (liquid MH culture medium adding Chloramphenicol at the same concentrations tested inoculated with bacteria and in the case of the Italian strain, copper sulfate was added), negative control (1) only substances plus solvent (liquid MH culture medium plus ethanol at 1% without inoculating bacteria) and a white control (only MH liquid culture medium, without inoculating). The bacterial suspension of each of the strains was adjusted to 0.5 McFarland (1×10^8 cfu/ml), inoculating 1.5 μL per well in the microplate and subsequently incubated at 27° C. for 24 hours.
(§5) The absorbances or optical density (O.D) were converted to percentage of antibacterial inhibition (PIAB) using the following formula:
(§6) In addition, […] aliquots of each of the concentrations were swept in a petri dish to observe the presence or absence of Psa colonies after 48 hours.

[3] = test system: Bacillus subtilis; assay: Antibacterial micro-dilution test (MIC), B.s; format: cell-based; settings: read-out: MIC B.s
Method: as §1, §4, §3

[4] = test system: Pseudomonas syringae pv actinidiae code 770; assay: Antibacterial micro-dilution test (MIC), Psa 770; format: cell-based; settings: read-out: MIC Psa 770
Method: as §1, §4, §5, §6

[5] = test system: Erwinia carotovora; assay: Antibacterial micro-dilution test (MIC), E.c; format: cell-based; settings: Pectobacterium carotovorum, read-out: MIC E.c
Method: as §1, §2, §3

[6] = test system: E. carotovora; assay: Membrane integrity by Sytox Green staining, E. carotovora; format: cell-based, Erwinia carotovora; settings: 50 ug/mL, 3 hours of incubation, fluorescence microscope
Method: FIG. 11: Effect of 2′, 4′ dihydroxychalcone on the integrity of the cell membrane of E. carotovora. The bacteria were incubated in a culture medium at 22 QC in the presence of 30% (v/v) ethanol (a), 5% methanol; 50 ug/mL of the compound against E. carotovora seen in bright field (b) and seen under fluorescence (c) for 3 hours of incubation.
(§7) Determination of the effect of compound 2 4′ dihydroxychalcone (compound No. 4) on the integrity of the membrane of Gram negative and Gram positive bacteria.
(§8) Because several studies have established that phenolic compounds destroy the bacterial membrane, the effect of the major compound […] (compound No. 4) present in the exudate of plants of the Adesmia genus was evaluated, which was attributes the antibacterial activity that they present against Pseudomonas syringae pv actinidiae (Psa). It was tested against Gram-negative bacteria of agricultural importance Erwinia carotovora by Sytox Green staining. […] In this way, through the observation of nuclei stained with Sytox in the fluorescence microscope (100×), it is evident that the mechanism of action of the compound against both the Gram positive bacteria S. aureus and Gram negative E. carotovora is the destruction of the plasma membrane (FIG. 11c).

[7] = test system: Pseudomonas syringae pv actinidiae (Psa); assay: Absolute quantification of Psa infecting kiwi plants by qRT-PCR; format: in vivo, Kiwi A. chinensis; settings: leaves, 3-4 weeks after inoculation, replicate runs; listed as Treatment 3
Method: (§9) The evaluations were made periodically to observe the symptoms of the plant (Table No. 4) and the samples were taken at the third and fourth week from the inoculation, in which the leaves were collected at the moment of beginning to see symptoms or in their defect a month after starting the trial, they were frozen in RNALater® and stored at −80° C. for RNA isolation.
For this, the total RNA of the problem samples was isolated from 80 to 100 mg of tissue from the leaves of A. chinensis belonging to the applied treatments, which were extracted with the E.Z.N.A.® PLANT RNA Kit using the protocol for difficult samples described by the manufacturer and the concentration of the extracted material was quantified through the Nanodrop equipment. The qRT-PCR was performed using the AriaMx Realtime PCR System equipment, using the Takion Sybrgreen+One step converter kit and specific primers synthesized by IDT (Integrated DNA Technologies) (See Table 6).
The program conditions were 48° C. for 10 min, 95° C. for 3 min, followed by 40 cycles of 95° C. for 10 sec, alignment and extension at 60° C. for 50 sec; then the melting curves 95° C. for 30 sec., 65° C. for 30 sec., and 95° C. for 30 sec. […] The number of copies/ng of Total Psa RNA were calculated through the equation of the straight line provided by the equipment, which was analyzed with the standard curve included in each qRT-PCR run.

[8] = test system: S. aureus; assay: Membrane integrity by Sytox Green staining, S. aureus; format: cell-based; settings: 50 ug/mL, 3 hours of incubation, fluorescence microscope
Method: as §7, §8

[9] = test system: Pseudomonas syringae pv actinidiae (Psa) 190770; assay: In vivo antibacterial activity test in Kiwi seedlings, phytopathological evaluation; design: species or system Kiwi A. chinensis; settings: 500 ug/mL
Text: In vivo antibacterial activity tests of the compounds of the present invention, in Kiwi crops.
It is important to point out that the Chilean patent application 0881-2018 of the same inventors of the present invention, describes a procedure to prepare a composition obtained from resinous exudates of the aerial parts of plants of the genus Adesmia, to control in vitro and in vivo infections. in plant crops. In addition, methods for controlling infections in plant crops are described, which comprise applying said composition to crops infected with various microorganisms. […] For this, Kiwi A. chinensis seedlings from in vitro propagation were used. The bacterium Pseudomonas syringae pv actinidiae (Psa) 190770 used in the in vitro tests was used. The plants were kept in aseptic chambers with 50% relative humidity, under controlled temperature conditions (20° C.±2) and a photoperiod regimen of 12 hours of light and 12 hours of darkness. Both the application of the treatments and inoculation were applied in the summer season. The bacterial inoculum was sprayed on the surface of the leaves of the plants, which had been subjected to small wounds on the leaves. […] Control plants were only sprayed with sterile distilled water and kept isolated from the others treated with Psa.
as §9

[10] = micro-dilution, MH medium, 27° C., 24 hours

Row | MIC [1] [µg/mL] | MIC [2, 10] [µg/mL] | MIC [3, 10] [µg/mL] | MIC [4, 10] [µg/mL] | SMILES | MIC ([2]; 24 h) [µg/mL] | MIC ([4]; 24 h) [µg/mL] | other results
1 | ≥ 50 | ≥ 50 | ≥ 10 | ≥ 50 | O=C(/C=C/c1ccccc1)c1c(O)cc(O)cc1O [Compound 10, 2′,4′, 6′-trihydroxy chalcone] |  |  | 
2 |  |  |  |  | CC(C)=CCc1cc(C(=O)CCc2ccccc2)c(O)cc1O [Compound 1] | ≥ 200 | ≥ 400 | 
3 | ≥ 50 | ≥ 1600 | ≥ 10 | ≥ 400 | COc1ccc(C(=O)CCc2ccccc2)c(OC)c1 [Compound 9, 2′,4′-dimethoxydihydrochalcone] |  |  | MIC [5, 10]: ≥ 10 µg/mL
4 |  |  |  |  | CC(C)=CCc1c(O)cc(O)c2c1O[C@H](c1ccccc1)CC2=O [Compound 2, glabranin] |  | ≥ 400 | 
5 |  |  |  |  | CC(C)=CCc1c(O)ccc(C(=O)/C=C/c2ccccc2)c1O [Compound 3, isochordine] |  | ≥ 1600 | 
6 |  |  |  |  | O=C(/C=C/c1ccccc1)c1ccc(O)cc1O [Compound 4, 2′,4′-dihydroxychalcone] | ≥ 50 | ≥ 200 | effect on the integrity of the plasmatic membrane [6]: alteration of the plasmatic membrane was observed; Ct [7]: 29.17 and 27.80 and 30.01; effect on the integrity of the plasmatic membrane [8]: alteration of the plasmatic membrane was observed; MIC ([5]; 24 h): ≥ 10 µg/mL; in vivo inhibition of the disease caused by Psa in Kiwi cultures [9]: in vivo inhibition of the disease; plants without visual symptoms of the disease (level 0, healthy plants) ([9]; preventive treatment): 60%; Percentage of incidence ([9]; preventive, sprayed 24 hours before inoculation): 40%; Level of Incidence according to category (Maximum value 3) ([9]; preventive, sprayed 24 hours before inoculation, damage scale 0-3 of Table No. 4): 0.4; MIC ([3]; 24 h): ≥ 10 µg/mL
